Test results published in patent US6204289A, “Cembranoid inhibitors of nicotinic acetylcholine receptors” (priority 1998, dated 2001).

System: peripheral and neuronal AchRs
Assay: Inhibition of peripheral and neuronal AchRs (summary statement)
Procedure: Cembranoids are cyclic diterpenoids naturally present in many plants and invertebrate animals. We discovered that cembranoids inhibit both peripheral and neuronal AchRs at concentrations ranging from 10^-15 molar to 10^-4 molar; cembranoids also increase the rate of receptor desensitization. Seventeen different cembranoid analogs were tested. There are two main differences between previously known AchR inhibitors and these new cembranoid inhibitors. […] Second, cembranoids are present in tobacco leaves, and therefore potentially have an effect on nicotine action in the brains of cigarette smokers. Nicotine-induced desensitization of neuronal acetylcholine receptors is related to behavioral tolerance or addiction to nicotine (6); since cembranoids increase receptor desensitization, they are likely to increase tobacco addictive properties. Thus, by extracting the cembranoids from tobacco, this could produce less addictive cigarettes (or any tobacco related product). On the other hand, addition of cembranoids to tobacco could possibly increase its addictive properties. In addition, cembranoids displace general anesthetics from the muscle-type AchR, and so they could ameliorate the undesirable side-effects of anesthesia in patients with Myasthenia gravis.
We discovered that cembranoids isolated from gorgonian-corals inhibit both peripheral and neuronal AchRs.

| Molecule | potency relative to any previously known AchR inhibitors (factor) |
| --- | --- |
| C=C(C(=O)O)C1CC/C(C)=C/CC/C(C)=C/CCC2(C)OC2C1 (centres unmarked) [pseudoplexauric acid] | at least 1000 |
| eupalmerin acetate | at least 1000 |
